Measured values reported in PubChem BioAssay AID248 (DTP/NCI, 2004).
Several values for one entry are separate records, joined by “and”; a condition that tells them apart may be missing. Equal entries are not always repeated. Inconclusive results and toxic doses are left out. Rule as the data show it: active = T/C of 150% or more; inactive = T/C below 125%.

System: L1210 leukemia ip in BDF1 mice, survival T/C
Assay: NCI In Vivo Anticancer Drug Screen. Data for tumor model L1210 Leukemia (intraperitoneal) in B6D2F1 (BDF1) mice
Settings: endpoint: mean survival time, higher = longer survival
Outline: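 Transplanted-tumor mice were given test agent; controls received vehicle only. Survival readings from the two groups were divided (treated over control).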

[1] = dose: 100.0 mg/kg/injection, schedule: Q01DX009 (ip), vehicle: Klucel (hydroxypropylcellulose) (HPC)
[2] = dose: 100.0 mg/kg/injection, schedule: Q04DX003 (ip), vehicle: Klucel (hydroxypropylcellulose) (HPC)
[3] = dose: 200.0 mg/kg/injection, schedule: Q01DX009 (ip), vehicle: Klucel (hydroxypropylcellulose) (HPC)
[4] = dose: 200.0 mg/kg/injection, schedule: Q04DX003 (ip), vehicle: Klucel (hydroxypropylcellulose) (HPC)
[5] = dose: 400.0 mg/kg/injection, schedule: Q01DX009 (ip), vehicle: Klucel (hydroxypropylcellulose) (HPC)
[6] = dose: 400.0 mg/kg/injection, schedule: Q04DX003 (ip), vehicle: Klucel (hydroxypropylcellulose) (HPC)
[7] = dose: 100.0 mg/kg/injection, schedule: Q01DX001 (ip), vehicle: saline
[8] = dose: 200.0 mg/kg/injection, schedule: Q01DX001 (ip), vehicle: saline
[9] = dose: 400.0 mg/kg/injection, schedule: Q01DX001 (ip), vehicle: saline
[10] = dose: 50.0 mg/kg/injection, schedule: Q01DX009 (ip), vehicle: Klucel (hydroxypropylcellulose) (HPC)

Measured: T/C

C/C(=C\c1c[nH]c2ccccc12)[N+](=O)[O-]
inactive: dose: 100.0 mg/kg/injection, schedule: Q01DX009 (ip), vehicle: saline with Tween-80 90 % of control | dose: 100.0 mg/kg/injection, schedule: Q04DX003 (ip), vehicle: saline with Tween-80 97 % of control | dose: 200.0 mg/kg/injection, schedule: Q01DX009 (ip), vehicle: saline with Tween-80 100 % of control | dose: 200.0 mg/kg/injection, schedule: Q04DX003 (ip), vehicle: saline with Tween-80 97 % of control | dose: 400.0 mg/kg/injection, schedule: Q01DX009 (ip), vehicle: saline with Tween-80 100 % of control | dose: 400.0 mg/kg/injection, schedule: Q04DX003 (ip), vehicle: saline with Tween-80 90 % of control

C=CCNC(=S)Nc1ccc(OC(=O)Nc2ccc(Cl)c(Cl)c2)cc1
inactive: dose: 100.0 mg/kg/injection, schedule: Q04DX002 (ip), vehicle: saline with Tween-80 102 % of control | dose: 200.0 mg/kg/injection, schedule: Q04DX002 (ip), vehicle: saline with Tween-80 97 % of control | dose: 400.0 mg/kg/injection, schedule: Q04DX002 (ip), vehicle: saline with Tween-80 105 % of control

ON(Cc1ccccc1)Cc1ccccc1
inactive: [1] 98 % of control | [2] 103 % of control | [3] 107 % of control | [4] 102 % of control | [5] 98 % of control | [6] 100 % of control

Brc1ccccc1Nn1c2ccccc2c2ccccc21
inactive: [1] 103 % of control | [3] 95 % of control | [5] 103 % of control

Cc1cc(C)c2c(C#N)cn(-c3ccc(Cl)cc3)c2n1
inactive: [7] 87 % of control | [8] 97 % of control | [9] 91 % of control

COc1ccc(O)c(Br)c1
inactive: dose: 100.0 mg/kg/injection, schedule: Q01DX009 (ip), vehicle: other 97 % of control | dose: 100.0 mg/kg/injection, schedule: Q04DX003 (ip), vehicle: other 94 % of control | dose: 200.0 mg/kg/injection, schedule: Q01DX009 (ip), vehicle: other 103 % of control | dose: 200.0 mg/kg/injection, schedule: Q04DX003 (ip), vehicle: other 96 % of control | dose: 400.0 mg/kg/injection, schedule: Q04DX003 (ip), vehicle: other 92 % of control

Cc1ccccc1N=C(N)N=C(N)N
inactive: dose: 25.0 mg/kg/injection, schedule: Q01DX009 (ip), vehicle: Klucel (hydroxypropylcellulose) (HPC) 93 % of control | dose: 25.0 mg/kg/injection, schedule: Q04DX003 (ip), vehicle: Klucel (hydroxypropylcellulose) (HPC) 95 % of control | [10] 90 % of control | dose: 50.0 mg/kg/injection, schedule: Q04DX003 (ip), vehicle: Klucel (hydroxypropylcellulose) (HPC) 103 % of control | [1] 98 % of control and 92 % of control | [2] 100 % of control and 90 % of control

Cn1nc(N)c2cc(C(N)=O)c(N)nc21
inactive: [1] 88 % of control | [2] 96 % of control | [4] 100 % of control | [5] 90 % of control | [6] 97 % of control

CC(=O)OC(C)COCc1ccccc1 (configuration not stated)
inactive: [7] 107 % of control | [8] 89 % of control | [9] 100 % of control

CNCCCC1c2ccccc2C=Cc2ccccc21
inactive: dose: 3.12 mg/kg/injection, schedule: Q01DX009 (ip), vehicle: saline 100 % of control | dose: 6.25 mg/kg/injection, schedule: Q01DX009 (ip), vehicle: saline 96 % of control | dose: 12.5 mg/kg/injection, schedule: Q01DX009 (ip), vehicle: saline 101 % of control | dose: 25.0 mg/kg/injection, schedule: Q01DX009 (ip), vehicle: saline 100 % of control | dose: 25.0 mg/kg/injection, schedule: Q04DX003 (ip), vehicle: saline 90 % of control | dose: 50.0 mg/kg/injection, schedule: Q04DX003 (ip), vehicle: saline 101 % of control

CCOC(=O)c1cnc(SC)nc1Nc1ccc(Br)cc1
inactive: [10] 93 % of control | [1] 92 % of control | [2] 124 % of control | [3] 88 % of control | [4] 124 % of control | [6] 87 % of control
